Measurements from US10010560B2, “Small molecule HSP70 inhibitors” (THE TRUSTEES OF THE UNIVERSITY OF PENNSYLVANIA, priority 2014, dated 2018).

Legend:
Type in all cases: cell-based
E. coli DH5α = assay: Growth of E. coli DH5α at 43° C.
Description: FIGS. 2A-2D illustrate the cytotoxicity of PET-16 to human tumor cells and its inhibition on E. coli growth. FIG. 2A is a line graph with data obtained from MTT assays of human melanoma cell lines treated with the indicated concentrations of PES or PET-16 for 72 h. The corresponding cell survival is normalized to vehicle (DMSO) treatment. Average and standard deviation (s.d.) from three independent experiments are shown. FIG. 2B are bar graphs of human melanoma (A875) cells and nontransformed human (IMR90) fibroblasts that were treated with DMSO, 10 μM PES or 10 μM PET-16 for 24 h. […] FIG. 2C is a line graph illustrating the growth of E. coli DH5α treated with different concentrations of PES or PET-16 for 6 h at 43° C. Error bars represent the s.d. of four independent experiments. FIG. 2D is a bar graph illustrating the growth of E. coli DH5α treated with DMSO, 30 μM PET-16 or 30 μM TPP for 6 h at 43° C. Error bars represent the s.d. of four independent experiments.
FIGS. 9A-9H illustrate that PET-16 binds directly to ADP-bound HSP70 and is cytotoxic to human tumor cells. FIGS. 9A-9C are ITC assays of the interaction of PET-3C with purified human HSP70-ADP (A), human HSP70-ATP (B) and DnaK-ADP (C) proteins. The data are representative of three independent experiments. FIG. 9D is a line graph of an MTT assay of the human melanoma cell line 1205 Lu treated with the indicated concentrations of PET-16 (---) or PET-3C (-) for 72 h. The corresponding cell survival is normalized to the DMSO-treatment. Average and standard deviation (s.d.) from three independent experiments are shown. FIG. 9E is a line graph illustrating the growth of E. coli DH5α strain treated with different concentrations of PET-16 (black) or PET-3C (gray) for 6 h at 43° C. Error bars represent the s.d. of four independent experiments. FIG. 9F is a bar graph illustrating the growth of E. coli DH5α treated with DMSO, 30 μM PET-16, 30 μM PET-3C or 30 μM TPP for 6 h at 43° C. Error bars represent the s.d. of four independent experiments. […]

BRAF(V600E) = assay: Western blot of client proteins in soluble and detergent-insoluble fractions; conditions: melanoma tumor cells, soluble fraction
Description: PET-16 promotes the loss of HSP90/HSP70 client proteins from the soluble fraction and the accumulation of some of these client proteins in the protein detergent-insoluble cellular fraction. Human melanoma cell lines (451 Lu, 1205 Lu and WM852) and mouse melanoma cell line (Yumm), as indicated, were treated with DMSO, PES or PET-16 for 24 hours. Cells were fractionated into detergent-soluble and detergent-insoluble preparations and assayed by Western blot (WB) analysis for the proteins indicated. […] The expression of many of these proteins is reduced in the soluble cell fractions, and often the abundance increases in the detergent insoluble fractions. This is indicative of loss of function of the client proteins.
Western blotting, immunoprecipitations and B-PES pull down assays were performed as described in Leu 2009 and Leu 2011. Preparation of biotin-conjugated PES was described in Leu 2009 and Leu 2011; Balaburski, 2013. Liquid chromatography-tandem mass spectrometry was performed by the Genomics Institute and Abramson Cancer Center Proteomics Core Facility at the Perelman School of Medicine, University of Pennsylvania. Electron microscopy (EM) and EM imaging were performed by The Electron Microscopy Resource Laboratory, Biomedical Research Core Facilities, at the Perelman School of Medicine, University of Pennsylvania.

[1] = tested on: primary melanocytes and nontransformed human fibroblasts (IMR90); assay: Cellular ATP levels (AlamarBlue assay) in normal cells
Text: FIGS. 5A-5F illustrates that PET-16 leads to loss of mitochondrial protein Cyclophilin D and impairs bioenergetics in tumor cells. FIGS. 5A-5D are western blots of HSP70, which is present at mitochondria of tumor H1299 cells but not in normal tissue, such as liver. The constitutively expressed 70 kDa family members, HSC70 and GRP75, are present in mitochondria of normal cells. Equal amounts of whole cell (WC)-, cytosolic (cyto)-, and mitochondrial (mito)-extracts prepared from cell lines H1299 (A, C) and MIA PaCa-2 (B) or normal (liver) cells (C, D) were examined by western blot analysis for the presence of the proteins indicated. […] Decreases of AlamarBlue® fluorescence, indicative of mitochondrial damage, are noted in PET-16-treated tumor cells (melanoma tumor cell line WM88 (-), melanoma tumor cell line WM3000 (×), melanoma tumor cell line WM852 (*), human melanoma 451 Lu cells (●), and melanoma tumor cell line WM989 (|), but not normal cells (nontransformed human fibroblasts (IMR90-♦) and primary melanocytes (▪)). Values are normalized to the vehicle-treated cells. Error bars represent standard deviation (s.d.) of four independent experiments.

With `C(#C[P+](c1ccccc1)(c1ccccc1)c1ccccc1)c1ccccc1.[Br-]` [PET-16, triphenyl(phenylethynyl)phosphonium bromide] the E. coli phenotype (E. coli DH5α) was “cell filamentation and reduced viability”, the “effect on growth of E. coli” value (E. coli DH5α; 6 h at 43° C.) was “impaired bacterial growth” and the “BRAF(V600E) protein abundance” value (BRAF(V600E)) was “reduction”. For the same compound, the “total ATP levels” value [1] was “no decrease”.
